In patent EP0603755A2, “Cephalosporin salts and processes for their preparation” (HOECHST AKTIENGESELLSCHAFT, priority 1992, dated 1994):

Tests used:
[1] = Qualitative solubility of the salts (observed on crystallisation from water); details: in water, partly relative to the salt of the other Articain enantiomer
[2] = Pharmacokinetics after intramuscular administration; antibiotic content in blood/serum by agar diffusion test; assay type: in vivo, Hund
Text: Zur Bestimmung der pharmakokinetischen Eigenschaften der erfindungsgemäßen Cephalosporin-Articainsalze wurden unter […] Untersuchungen an Mäusen und Hunden durchgeführt. Die […] und die korrespondierenden Alkalisalze der Cephalosporine wurden in therapeutisch üblichen Dosierungen intramuskulär verabreicht. Zu festgelegten Zeitpunkten nach der Injektion des Antibiotikums wurden den Versuchstieren Blutproben entnommen und der Antibiotika-Gehalt im Blut bzw. Serum mit Hilfe des Agardiffusionstestes bestimmt. Die pharmakokinetischen […] Computerprogramms ermittelt.

Compound: CCCNC(C)C(=O)Nc1c(C)csc1C(=O)OC.CON=C(C(=O)NC1C(=O)N2C(C(=O)O)=C(COC(N)=O)CSC12)c1ccco1 (single isomer, unassigned; (+)) [(+) Articain-Cefuroximsalz]
- Löslichkeit [1]: schwerlösliche

Compound: CCCNC(C)C(=O)Nc1c(C)csc1C(=O)OC.CON=C(C(=O)NC1C(=O)N2C(C(=O)O)=C(COC(C)=O)CSC12)c1csc(N)n1 (single isomer, unassigned; (+)) [(+)-Articain-Cefotaxim, ( +)-Articain-Cefotaximsalz]
- Halbwertszeit ([2]; dog, in vivo, im): 4,1 Stunden

Compound: CCCNC(C)C(=O)Nc1c(C)csc1C(=O)OC.CON=C(C(=O)NC1C(=O)N2C(C(=O)O)=CCSC12)c1csc(N)n1 (single isomer, unassigned; (-)) [(-)-Articain-Ceftizoximsalz]
- Löslichkeit [1]: leichter löslich in Wasser

Compound: CCCCOC(=O)c1scc(C)c1NC(=O)C(C)NCCC.CO/N=C(\C(=O)N[C@@H]1C(=O)N2C(C(=O)O)=C(COC(C)=O)CS[C@H]12)c1csc(N)n1 [Beispiel 10, Cefotaximsalz von (+ )n-Butyl 4-methyl-3(2-n-propylaminopropionamido) thiophen-2-carboxylat]
- Halbwertszeit ([2]; Hund, intramuscular application, blood/serum level by agar diffusion test): 6,6 Stunden

Compound: CO/N=C(\C(=O)N[C@@H]1C(=O)N2C(C(=O)O)=C(COC(C)=O)CS[C@H]12)c1csc(N)n1 [Cefotaxim, reference compound]
- half-life ([2]; dog, im, Hund, intramuscular application, blood/serum level by agar diffusion test, read-out: Halbwertszeit (converted)): 48 min
